Source: ChEMBL document CHEMBL6092215, “A Prostate-Specific Membrane Antigen-Targeting Small Molecule-Drug Conjugate Strategy to Overcome the Hematological Toxicity of Olaparib” (J Med Chem, 2024)

Experiments:
LNCaP = assay: Antiproliferative activity against human LNCaP cells with high PSMA expression assessed as effect on cell viability incubated for 72 hrs by MTT assay; format: functional, cell-based
CWR22R [1] = assay: Antiproliferative activity against human 22Rv1 cells with high PSMA expression assessed as effect on cell viability incubated for 72 hrs by MTT assay; format: functional, cell-based; settings: 22Rv1, 72 h
PC-3 = assay: Antiproliferative activity against PSMA negative human PC-3 cells assessed as effect on cell viability incubated for 72 hrs by MTT assay; format: functional
[2] = Antiproliferative activity against PSMA negative human RWPE-1 cells assessed as effect on cell viability incubated for 72 hrs by MTT assay; format: toxicity, cell-based; settings: RWPE-1 cells (PSMA negative)
[3] = molecular target: Poly [ADP-ribose] polymerase 1 (Homo sapiens, UniProt P09874); assay: Inhibition of PARP1 (unknown origin) by biotinylated NAD+-based luminescence assay
Chain of Poly [ADP-ribose] polymerase 1 (P09874 whole entry): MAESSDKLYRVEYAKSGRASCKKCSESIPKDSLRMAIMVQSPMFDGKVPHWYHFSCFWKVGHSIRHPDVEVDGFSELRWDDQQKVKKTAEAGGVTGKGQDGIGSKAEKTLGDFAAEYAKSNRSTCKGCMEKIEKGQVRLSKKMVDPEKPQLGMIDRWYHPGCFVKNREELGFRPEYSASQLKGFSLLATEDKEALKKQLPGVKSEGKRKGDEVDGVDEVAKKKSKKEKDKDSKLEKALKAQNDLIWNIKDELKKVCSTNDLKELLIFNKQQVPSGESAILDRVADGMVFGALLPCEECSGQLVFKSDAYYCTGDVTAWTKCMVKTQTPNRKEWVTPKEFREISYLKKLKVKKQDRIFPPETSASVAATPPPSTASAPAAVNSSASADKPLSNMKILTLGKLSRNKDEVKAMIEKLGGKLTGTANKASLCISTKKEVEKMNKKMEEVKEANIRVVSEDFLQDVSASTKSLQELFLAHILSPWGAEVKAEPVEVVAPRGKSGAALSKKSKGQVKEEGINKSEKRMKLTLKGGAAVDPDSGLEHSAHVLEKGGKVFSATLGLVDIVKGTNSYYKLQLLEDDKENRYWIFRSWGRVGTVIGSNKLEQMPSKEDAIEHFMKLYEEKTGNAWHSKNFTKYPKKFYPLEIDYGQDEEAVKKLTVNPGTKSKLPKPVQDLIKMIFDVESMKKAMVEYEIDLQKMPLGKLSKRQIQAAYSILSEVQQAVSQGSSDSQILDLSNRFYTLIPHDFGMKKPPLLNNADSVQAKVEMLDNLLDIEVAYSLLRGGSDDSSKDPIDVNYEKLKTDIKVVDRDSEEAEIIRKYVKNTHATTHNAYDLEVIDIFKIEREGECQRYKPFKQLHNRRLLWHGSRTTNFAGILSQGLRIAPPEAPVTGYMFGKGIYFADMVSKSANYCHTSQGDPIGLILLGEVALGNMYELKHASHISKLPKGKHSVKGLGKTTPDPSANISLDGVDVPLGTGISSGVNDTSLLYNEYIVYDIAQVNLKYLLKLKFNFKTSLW

CWR22R [4] = assay: Induction of DNA damage in human 22Rv1 cells assessed as increase in number of gamma-H2AX foci incubated for 12 hrs by DAPI staining based immunofluorescence analysis; format: functional, cell-based; settings: dose 50-200 µM
CWR22R [5] = assay: Induction of apoptosis in human 22Rv1 cells assessed as increase in cleaved caspase-3 expression at 100 uM incubated for 72 hrs by Western blot analysis; format: functional, cell-based
CWR22R [6] = assay: Antiproliferative activity against human 22Rv1 cells assessed as reduction in cell viability at 125 uM in presence of DUPA; format: functional, cell-based
[7] = Drug uptake in PSMA positive human 22Rv1 cells at 10 uM measured after 1 to 6 hrs by LC-MS/MS analysis; format: ADME, cell-based; settings: cwr22r, time 1-6 hrs
[8] = Drug uptake in PSMA positive human 22Rv1 cells at 10 uM measured after 1 to 6 hrs in presence of PSMA ligand DUPA by LC-MS/MS analysis; format: ADME, cell-based; settings: cwr22r, time 1-6 hrs
[9] = Half-life in Sprague-Dawley rat at 100 mg/kg, po measured after 24 hrs by UPLC-MS/MS analysis; format: ADME, organism-based; settings: in vivo
[10] = Tmax in Sprague-Dawley rat at 100 mg/kg, po measured after 24 hrs by UPLC-MS/MS analysis; format: ADME, organism-based; settings: in vivo
[11] = Cmax in Sprague-Dawley rat at 100 mg/kg, po measured after 24 hrs by UPLC-MS/MS analysis; format: ADME, organism-based; settings: in vivo
[12] = AUC (0 to t) in Sprague-Dawley rat at 100 mg/kg, po measured after 24 hrs by UPLC-MS/MS analysis; format: ADME, organism-based; settings: in vivo
[13] = AUC (0 to infinity) in Sprague-Dawley rat at 100 mg/kg, po measured after 24 hrs by UPLC-MS/MS analysis; format: ADME, organism-based; settings: in vivo
[14] = Oral bioavailability in Sprague-Dawley rat at 100 mg/kg measured after 24 hrs by UPLC-MS/MS analysis; format: ADME, organism-based; settings: in vivo
[15] = Half-life in Sprague-Dawley rat at 5 mg/kg, iv measured after 24 hrs by UPLC-MS/MS analysis; format: ADME, organism-based; settings: in vivo
[16] = C0 in Sprague-Dawley rat at 5 mg/kg, iv measured after 24 hrs by UPLC-MS/MS analysis; format: ADME, organism-based; settings: in vivo
[17] = Volume of distribution in Sprague-Dawley rat at 5 mg/kg, iv measured after 24 hrs by UPLC-MS/MS analysis; format: ADME, organism-based; settings: in vivo
[18] = Clearance in Sprague-Dawley rat at 5 mg/kg, iv measured after 24 hrs by UPLC-MS/MS analysis; format: ADME, organism-based; settings: in vivo
[19] = AUC (0 to t) in Sprague-Dawley rat at 5 mg/kg, iv measured after 24 hrs by UPLC-MS/MS analysis; format: ADME, organism-based; settings: in vivo
[20] = AUC (0 to infinity) in Sprague-Dawley rat at 5 mg/kg, iv measured after 24 hrs by UPLC-MS/MS analysis; format: ADME, organism-based; settings: in vivo
[21] = Subacute toxicity in male ICR mouse assessed as decrease in body weight at 195 to 390 mg/kg, po administered via gavage for 30 days; format: organism-based; settings: in vivo, 720 h, dose 195-390 mg/kg, time 30 day
[22] = Subacute toxicity in male ICR mouse assessed as decrease in red blood cells at 195 to 390 mg/kg, po administered via gavage for 30 days by blood routine test; format: organism-based; settings: in vivo, 720 h, dose 195-390 mg/kg, time 30 day
[23] = Subacute toxicity in male ICR mouse assessed as decrease in hemoglobin at 195 to 390 mg/kg, po administered via gavage for 30 days by blood routine test; format: organism-based; settings: in vivo, 720 h, dose 195-390 mg/kg, time 30 day
[24] = Subacute toxicity in male ICR mouse assessed as decrease in hematocrit at 195 to 390 mg/kg, po administered via gavage for 30 days by blood routine test; format: organism-based; settings: in vivo, 720 h, dose 195-390 mg/kg, time 30 day
[25] = Subacute toxicity in male ICR mouse assessed as decrease in WBC at 195 to 390 mg/kg, po administered via gavage for 30 days by blood routine test; format: organism-based; settings: in vivo, 720 h, dose 195-390 mg/kg, time 30 day
[26] = Subacute toxicity in male ICR mouse assessed as decrease in neutrophil at 195 to 390 mg/kg, po administered via gavage for 30 days by blood routine test; format: organism-based; settings: in vivo, 720 h, dose 195-390 mg/kg, time 30 day
[27] = Subacute toxicity in male ICR mouse assessed as decrease in lymphocytes at 195 to 390 mg/kg, po administered via gavage for 30 days by blood routine test; format: organism-based; settings: in vivo, 720 h, dose 195-390 mg/kg, time 30 day
CWR22R [28] = assay: Antitumor activity against human 22Rv1 cells xenografted in male BALB/c nude mouse administered via gavage; format: functional, cell-based; settings: dose 195-390 mg/kg
[29] = Toxicity in male BALB/c nude mouse xenografted with human 22Rv1 cells assessed as decrease in body weight at 195 to 390 mg/kg administered via gavage; format: organism-based; settings: in vivo, po, dose 195-390 mg/kg
CWR22R [30] = assay: Antitumor activity against human 22Rv1 cells xenografted in male BALB/c nude mouse assessed as tumor growth inhibition at 100 mg/kg administered via gavage relative to control; format: functional; settings: 22Rv1, po, read-out: TGI
CWR22R [31] = assay: Antitumor activity against human 22Rv1 cells xenografted in male BALB/c nude mouse assessed as tumor growth inhibition at 195 to 390 mg/kg administered via gavage relative to control; format: functional; settings: dose 195-390 mg/kg
CWR22R [32] = assay: Antitumor activity against human 22Rv1 cells xenografted in male BALB/c nude mouse assessed as tumor growth inhibition at 25 mg/kg administered via gavage relative to control; format: functional; settings: 22Rv1, po, read-out: TGI
CWR22R [33] = assay: Antitumor activity against human 22Rv1 cells xenografted in male BALB/c nude mouse assessed as tumor growth inhibition at 50 mg/kg administered via gavage relative to control; format: functional; settings: 22Rv1, po, read-out: TGI
[34] = Toxicity in male BALB/c nude mouse xenografted with human 22Rv1 cells assessed as decrease in body weight at 25 to 100 mg/kg administered via gavage; format: organism-based; settings: in vivo, po, dose 25-100 mg/kg
[35] = Toxicity in male BALB/c nude mouse xenografted with human 22Rv1 cells assessed as decrease in WBC at 25 to 100 mg/kg administered via gavage by routine blood test; format: organism-based; settings: in vivo, po, dose 25-100 mg/kg
[36] = Toxicity in male BALB/c nude mouse xenografted with human 22Rv1 cells assessed as decrease in neutrophils at 25 to 100 mg/kg administered via gavage by routine blood test; format: organism-based; settings: in vivo, po, dose 25-100 mg/kg
[37] = Toxicity in male BALB/c nude mouse xenografted with human 22Rv1 cells assessed as decrease in lymphocytes at 25 to 100 mg/kg administered via gavage by routine blood test; format: organism-based; settings: in vivo, po, dose 25-100 mg/kg
[38] = Toxicity in male BALB/c nude mouse xenografted with human 22Rv1 cells assessed as decrease in RBC at 25 to 100 mg/kg administered via gavage by routine blood test; format: organism-based; settings: in vivo, po, dose 25-100 mg/kg

O=C(O)CC[C@H](NC(=O)N[C@@H](CCCCNC(=O)CCC(=O)NC1(C(=O)N2CCN(C(=O)c3cc(Cc4n[nH]c(=O)c5ccccc45)ccc3F)CC2)CC1)C(=O)O)C(=O)O
IC50 (LNCaP): 80.6 µM
IC50 (CWR22R [1]): 84.5 µM
CC50 (PC-3): > 1000 µM
CC50 at 72 h [2]: > 1000 µM
IC50 [3]: 0.001 µM
Activity (CWR22R [4]): Dose-dependent-effect
Activity (CWR22R [5]): Active; Similar To Olaparib-Treated Group
Activity (CWR22R [6]): Not active; Drug Mode Of Action Appears To Be Via Binding To Psma Receptor
Drug uptake [7]: Active
Drug uptake [8]: Not_active
half-life [9]: 1.02 h
Tmax [10]: 1 h
Cmax [11]: 7310 ng/mL
AUC(0-t) at 24 h [12]: 27400 ng·h/mL
AUC(0-inf) [13]: 27800 ng·h/mL
bioavailability [14]: 18.6%
half-life [15]: 0.362 h
C0 at 24 h [16]: 13500 ng/mL
Vd [17]: 0.383 L/kg
clearance [18]: 12.2 mL/min/kg
AUC(0-t) at 24 h [19]: 7310 ng·h/mL
AUC(0-inf) [20]: 7460 ng·h/mL
Activity [21]: Non-toxic
Activity [22]: Non-toxic
Activity [23]: Non-toxic
Activity [24]: Non-toxic
Activity [25]: Non-toxic
Activity [26]: Non-toxic
Activity [27]: Non-toxic
Activity (CWR22R [28]): Dose-dependent-effect
Activity [29]: Non-toxic
inhibition in vivo at 100 mg/kg (CWR22R [30]): 70%
TGI (CWR22R [31]): 73%
inhibition in vivo at 25 mg/kg (CWR22R [32]): 52%
inhibition in vivo at 50 mg/kg (CWR22R [33]): 65%
Activity [34]: Non-toxic
Activity [35]: Non-toxic
Activity [36]: Non-toxic
Activity [37]: Non-toxic
Activity [38]: Non-toxic
